Like-named read-outs stand apart in the source and are kept apart here.
Legend:
[1] = system: acutely dissociated and purified rat OPCs; experiment: Acute OL differentiation assay (MBP expression/cell, immunofluorescent image quantification); format: cell-based; settings: sheet "All OLga data"
Outline: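 This acute differentiation assay used purified rat OPCs from postnatal day 6–7 pups, seeded into PDL/laminin-coated 96-well plates in differentiation medium lacking PDGF and FGF. Compounds were applied in quadruplicate after a 1–2 h preincubation at 37 °C, 10 % CO2, with 0.1 % DMSO negative and 40 ng/ml T3 positive controls in eight wells. After fixation on DIV4, anti-MBP immunofluorescence images yielded MBP expression/cell.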

expanded OPCs = experiment: cells; settings: for viability at 0.1 µM / viability at 1 µM / viability at 10 µM: Rattus norvegicus, 72 h
Outline: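 Toxicity screen: compounds added at 0.1, 1 and 10 µM to PDGF-AA-expanded OPCs in 96-well plates, 3-day incubation at 37 °C, 10% CO2, then alamarBlue 1:10 for 4 h with fluorescence readout. Results set screening doses of 10/2, 2/0.4 or 0.4/0.08 µM.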

[2] = Rattus norvegicus, test compound at 2 uM, NCC library screen, relative to quetiapine, read-out: 2 uM (% Quet)
[3] = Rattus norvegicus, test compound at 10 uM, NCC library screen, relative to quetiapine, read-out: 10 uM (% Quet)
[4] = read-out: 0.1 µM (% DMSO), alamarBlue viability, NCC library compound at 0.1 µM, sheet "All Tox data"
[5] = read-out: 1 µM (% DMSO), alamarBlue viability, NCC library compound at 1 µM, sheet "All Tox data"
[6] = read-out: 10 µM (% DMSO), alamarBlue viability, NCC library compound at 10 µM, sheet "All Tox data"
[7] = Rattus norvegicus, 2 uM test compound, relative to quetiapine, read-out: OL differentiation, 2 uM (% Quet)
[8] = Rattus norvegicus, 10 uM test compound, relative to quetiapine, read-out: OL differentiation, 10 uM (% Quet)
[9] = Rattus norvegicus, test compound at 2 uM, MBP expression relative to quetiapine, NCC library screen, read-out: 2 uM (% Quet)
[10] = Rattus norvegicus, test compound at 10 uM, MBP expression relative to quetiapine, NCC library screen, read-out: 10 uM (% Quet)
[11] = read-out: 0.1 µM (% DMSO), alamarBlue viability of expanded OPCs, compound at 0.1 µM, sheet All Tox data
[12] = read-out: 1 µM (% DMSO), alamarBlue viability of expanded OPCs, compound at 1 µM, sheet All Tox data
[13] = read-out: 10 µM (% DMSO), alamarBlue viability of expanded OPCs, compound at 10 µM, sheet All Tox data
[14] = alamarBlue viability of expanded OPCs, compound at 0.1 µM, relative to DMSO control
[15] = alamarBlue viability of expanded OPCs, compound at 1 µM, relative to DMSO control
[16] = alamarBlue viability of expanded OPCs, compound at 10 µM, relative to DMSO control

Structure (SMILES)	activation at 2 µM [1, 2] [%]	activation at 10 µM [1, 3] [%]	activation at 2 µM [1, 7] [%]	activation at 10 µM [1, 8] [%]	viability at 0.1 µM (expanded OPCs; [11]) [%]	viability at 1 µM (expanded OPCs; [12]) [%]	viability at 10 µM (expanded OPCs; [13]) [%]	0.1 µM (% DMSO) (expanded OPCs; [14])	1 µM (% DMSO) (expanded OPCs; [15])	10 µM (% DMSO) (expanded OPCs; [16])	further results
c1ccc(Cn2ccnc2)cc1 [1-Benzylimidazole]	0.1	10.7	–	–	–	–	–	–	–	–	viability at 0.1 µM (expanded OPCs; [4]): 85.4%; viability at 1 µM (expanded OPCs; [5]): 91.8%; viability at 10 µM (expanded OPCs; [6]): 94.3%
Cc1nccn1CC1CCc2c(c3ccccc3n2C)C1=O (stereo not drawn) [Ondansetron]	–	–	4.2	-7.7	92.9	92.2	102	95.7	92.7	90.9	activation at 2 µM [1, 9]: 3%; activation at 10 µM [1, 10]: 3.5%
CN1CCN(c2c(F)cc3c(=O)c(C(=O)O)cn4c3c2SCC4)CC1 [Rufloxacin]	–	–	-26.4	7	98.3	89.1	103	–	–	–	–
Cc1ccc(-c2cc(C(F)(F)F)nn2-c2ccc(S(N)(=O)=O)cc2)cc1 [Celecoxib]	–	–	–	–	–	–	–	94.3	89.6	87.2	activation at 2 µM [1, 9]: 14.8%; activation at 10 µM [1, 10]: 9%
CCN(CC)CCOc1ccc(C(=C(Cl)c2ccccc2)c2ccccc2)cc1 [Clomiphene]	–	–	–	–	–	–	–	172.3	59.8	8.1	activation at 0.4 µM ([1]; Rattus norvegicus, test compound at 0.4 uM, MBP expression relative to quetiapine, NCC library screen, read-out: 0.4 uM (% Quet)): 51.5%
CC(=O)CC(c1ccccc1)c1c(O)c2ccccc2oc1=O (stereo not drawn) [Warfarin]	-4.3	-2	–	–	–	–	–	92.9	93.8	96.2	–
CC(=O)Nc1nnc(S(N)(=O)=O)s1 [Acetazolamide]	-8.7	-43.8	–	–	–	–	–	89.2	90.6	87.5	–
O=C1c2c(O)cc(O)cc2OC(c2ccc(O)c(O)c2)C1O (stereo not drawn) [Taxifolin]	–	–	-1.7	-59	96.4	93.7	88.7	–	–	–	–
C[C@]12CCC(=O)C=C1CC[C@@H]1[C@@H]2CC[C@@]2(C)[C@H]1CC[C@]2(O)C(=O)CO [Cortodoxone]	2.2	5.5	–	–	–	–	–	–	–	–	viability at 0.1 µM (expanded OPCs; [4]): 92.3%; viability at 1 µM (expanded OPCs; [5]): 99.6%; viability at 10 µM (expanded OPCs; [6]): 96.1%
NC(=O)OCCCc1ccccc1 [Phenprobamate]	–	–	26.9	12.1	96	95.1	92.7	–	–	–	–
CC[C@H]1OC(=O)[C@H](C)[C@@H](O[C@H]2C[C@@](C)(OC)[C@@H](O)[C@H](C)O2)[C@H](C)[C@@H](O[C@@H]2O[C@H](C)C[C@H](N(C)C)[C@H]2O)[C@](C)(O)C[C@@H](C)C(=O)[C@H](C)[C@@H](O)[C@]1(C)O [Erythromycin]	–	–	-40.1	-66.2	93.4	89.6	59.1	–	–	–	–
COc1ccc(/C=C/C(=O)Nc2ccccc2C(=O)O)cc1OC [Tranilast]	–	–	5.9	-18.5	90.5	90	85.8	–	–	–	–
C[n+]1ccccc1/C=N/O [Pralidoxime]	-5	-3.8	–	–	–	–	–	–	–	–	viability at 0.1 µM (expanded OPCs; [4]): 90.3%; viability at 1 µM (expanded OPCs; [5]): 93.1%; viability at 10 µM (expanded OPCs; [6]): 89.1%
OC[C@H]1O[C@@H](n2cnc3c(NC4CCCC4)nc(Cl)nc32)[C@H](O)[C@@H]1O [CCPA]	–	–	–	–	–	–	–	–	–	–	2 uM (% Quet) ([1]; test compound at 2 uM, NCC library screen, relative to quetiapine): -30.5 % Quet; 10 uM (% Quet) ([1]; test compound at 10 uM, NCC library screen, relative to quetiapine): -64.0 % Quet; 0.1 µM (% DMSO) (expanded OPCs; alamarBlue viability, NCC library compound at 0.1 µM, sheet "All Tox data"): 87.1 % DMSO; 1 µM (% DMSO) (expanded OPCs; alamarBlue viability, NCC library compound at 1 µM, sheet "All Tox data"): 88.1 % DMSO; 10 µM (% DMSO) (expanded OPCs; alamarBlue viability, NCC library compound at 10 µM, sheet "All Tox data"): 93.0 % DMSO
C[C@@H]1C[C@H]2[C@@H]3CCC4=CC(=O)C=C[C@]4(C)[C@@]3(F)[C@@H](O)C[C@]2(C)[C@@]1(O)C(=O)CO [Dexamethazone]	–	–	–	–	–	–	–	115.8	108.1	98.4	2 uM (% Quet) ([1]; test compound at 2 uM, MBP expression relative to quetiapine, NCC library screen): -1.3 % Quet; 10 uM (% Quet) ([1]; test compound at 10 uM, MBP expression relative to quetiapine, NCC library screen): -8.3 % Quet
OCCOCCN1CCN(C2=Nc3ccccc3Sc3ccccc32)CC1 [Quetiapine hemifumarate]	130	87.7	–	–	–	–	–	–	–	–	viability at 0.1 µM (expanded OPCs; [4]): 118%; viability at 1 µM (expanded OPCs; [5]): 149%; viability at 10 µM (expanded OPCs; [6]): 117%
CN1C(=O)CN=C(c2ccccc2)c2cc([N+](=O)[O-])ccc21 [Nimetazepam]	–	–	6.5	-0.15	–	–	–	–	–	–	viability at 0.1 µM (expanded OPCs; [4]): 89.5%; viability at 1 µM (expanded OPCs; [5]): 82.8%; viability at 10 µM (expanded OPCs; [6]): 81.8%
O=C(c1ccccc1)c1ccc2n1CCC2C(=O)O (stereo not drawn) [Ketorolac]	16.3	-1.3	–	–	–	–	–	–	–	–	viability at 0.1 µM (expanded OPCs; [4]): 97.7%; viability at 1 µM (expanded OPCs; [5]): 102%; viability at 10 µM (expanded OPCs; [6]): 103%
CNC1CC(c2ccc(Cl)c(Cl)c2)c2ccccc21 (stereo not drawn) [Indatraline]	–	–	–	–	75.5	41.1	11.7	–	–	–	activation at 0.08 µM ([1]; Rattus norvegicus, 0.08 uM test compound, relative to quetiapine, read-out: OL differentiation, 0.08 uM (% Quet)): 15.3%; activation at 0.4 µM ([1]; Rattus norvegicus, 0.4 uM test compound, relative to quetiapine, read-out: OL differentiation, 0.4 uM (% Quet)): 24.5%
COc1cc2nc(N3CCN(C(=O)C4CCCO4)CC3)nc(N)c2cc1OC (stereo not drawn) [Terazosin]	–	–	-2.4	8.7	81.1	80.8	78.7	93.3	94.6	74.1	activation at 2 µM [1, 9]: -10.8%; activation at 10 µM [1, 10]: -37.2%
CC(C[N+](C)(C)C)OC(N)=O (stereo not drawn) [Bethanechol]	–	–	–	–	–	–	–	87.6	93.0	88.2	activation at 2 µM [1, 9]: -1%; activation at 10 µM [1, 10]: -21.7%
